This test relates to PatD. Put plainly: PatD enzyme reaction: introduction of azoline rings into substrate peptides, mass change read by MALDI-TOF-MS. Type of test: biochemical, Prochloron didemni. The note with it: for Dehydrated molecules: modification with PatD of synthesized substrates (Table 11-2). The method, then: After the DNA prepared in 3-2 was transcribed and translated in a cell-free protein expression system of 2.5 μl scale in accordance with the method of Kawakami, et al. (Kawakami et al., Chemistry & Biology 15, 32-42 (2008)) and the solution conditions were adjusted by adding 40 mM Tris-HCl (pH 8.0), 8 mM DTT, 4 mM MgCl2, and 0.8 mM ATP (each, final concentration), recombinant PatD was added.
The reaction was conducted under two conditions as described below.
The mass of the peptide was measured using MALDI-TOF-MS by using sinapinic acid as a matrix and whether a mass change occurred or not by the addition of PatD was checked. The number of azoline rings introduced can be found from the mass change.

Here are results for seven substances from patent US10197567B2, “Azoline compound and azole compound library and method for producing same” (The University of Tokyo, priority 2011, dated 2019).

Square brackets hold non-standard residues; d marks the D form. Ends that are not written are not given here. * marks the point of attachment. Dap = NC[C@H](N)C(=O)O; For = O=C*

The substance “Ac—LAELSEEALGDA-GGGGG-VXAXIXFX (X=Dap)-A: synthetic peptide significantly different from a natural substrate (FIG. 17) (Ac-LAELSEEALGDAGGGGGV[Dap]A[Dap]I[Dap]F[Dap]A)” yielded a Dehydrated molecules of 4.

For the substance “C1wt: PatE precursor peptide, leader-GLEAS-cassette-AYDGVEPS; cassette VTACITFC, same as wild type PatE (GLEASVTACITFCAYDGVEPS; An example of Recognition Sequence 1 based on Prochloron didemni.; Amino acid sequence of cassette region of wild type PatE; An example of Recognition Sequence 2 based on Prochloron didemni.)”, the “number of azoline rings introduced by PatD” value (modification with PatD, change in molecular weight by MALDI-TOF-MS) was “four”.

For the substance “PatEC1wt-GS: precursor peptide; cassette VTACITFC, recognition sequence 2 AYDGVGSGSGS (GLEASVTACITFCAYDGVGSGSGS; An example of Recognition Sequence 1 based on Prochloron didemni.; Amino acid sequence of cassette region of wild type PatE; An example of Recognition Sequence 2 based on Prochloron didemni.)”, the “number of heterocycles in C-terminal short peptide” value (treated with PatD and Glu-C, leader sequence cleaved) is recorded as “four”.

For the substance “fMLAELSEEALGDA-GGGGG-VXAX (X=Dap)-A: PatD substrate with shortened leader, GGGGG and Dap in the cassette (For-MLAELSEEALGDAGGGGGV[Dap]A[Dap]A)”, the Dehydrated molecules turned out to be 1.

In turn, “fMLAELSEEALGDA-GGGGG-VXAX (X=PhSer)-A: PatD substrate with shortened leader, GGGGG and PhSer in the cassette (For-MLAELSEEALGDAGGGGGV[PhSer]A[PhSer]A)” showed a Dehydrated molecules of 1.

Substance “fMNKKNILPQQGQPVIRLTAGQLSSQLAELSEEALGDA-GLEAS-LCGCTSYCYTVS-AYDGV: PatD substrate: leader, recognition sequence 1, cassette, recognition sequence 2 (For-MNKKNILPQQGQPVIRLTAGQLSSQLAELSEEALGDAGLEASLCGCTSYCYTVSAYDGV; cysteine pairing not given here)” returned a Dehydrated molecules of 2.

Substance “fMNKKNILPQQGQPVIRLTAGQLSSQLAELSEEALGDA-GLEAS-VXAX (X=Dap)-AYDGVEPS: PatD substrate with Dap in the cassette (For-MNKKNILPQQGQPVIRLTAGQLSSQLAELSEEALGDAGLEASV[Dap]A[Dap]AYDGVEPS)” returned a Dehydrated molecules of 2.
